Source: patent publication US12378268B2, “Heterocyclic THR-β receptor agonist compound and preparation method and use therefor” (Hepagene Therapeutics (HK) Limited, priority 2019, dated 2025)

Assays:
[1] = molecular target: T1, THR-α (Homo sapiens, UniProt P10827); assay: Test of the binding ability of the compound to TRα (TRα LBD/RXRα, biotin-SRC2-2 co-activating peptide, 665/615 nm fluorescence ratio); assay type: biochemical; details: for Emax: activity relative to positive control
T1 construct: TR-a LBD, GST purchased from Thermo Fisher; purchased Thermo Fisher PV4762
Method: (§1) 4.2 The activity percentage was calculated as follows: […]
(§2) RatioCompound: Average of the relative ratios of the compound wells of the embodiments
(§3) RatioPositive: Average of the relative ratios of all positive control wells.
(§4) RatioBlank: Average of the relative ratios of all negative control wells.
(§5) EC50 was calculated by fitting the relationship between activity (%) and compound logarithmic concentration with Graphpad 5.0 by a nonlinear regression method.
(§6) Y=Bottom+ (top-bottom)/(1+10^((LogEC50−X)*slope))
(§7) X: Compound logarithmic concentration Y: Percentage activity

[2] = molecular target: T2, THR-β (Homo sapiens, UniProt P10828); assay: Test of the binding ability of the compound to TRβ (TRβ LBD/RXR, biotin-SRC2-2 co-activating peptide, 665/615 nm fluorescence ratio); assay type: biochemical; details: for Emax: activity relative to positive control; for α/β selectivity (multiple): calculated after being standardized with T3
T2 construct: TRB LBD, GST purchased from Thermo Fisher; purchased Thermo Fisher PV4762
Method: 1. Main experimental materials and instruments:
Biotin-SRC2-2 co-activating peptide purchased from Sangon Biotech (Shanghai) Co., Ltd.
TRB LBD, GST purchased from Thermo Fisher (product No. PV4762)
Europium-conjugated anti-glutathione antibody purchased from Cisbio (product No. 61GSTKLB)
Streptavidin-D2 purchased from Cisbio (product No. 610SADAB)
as §1, §2, §3, §4, §5, §6, §7

T1 sequence (P10827 163-410 isoform P10827-2 limits assumed, other chains not shown): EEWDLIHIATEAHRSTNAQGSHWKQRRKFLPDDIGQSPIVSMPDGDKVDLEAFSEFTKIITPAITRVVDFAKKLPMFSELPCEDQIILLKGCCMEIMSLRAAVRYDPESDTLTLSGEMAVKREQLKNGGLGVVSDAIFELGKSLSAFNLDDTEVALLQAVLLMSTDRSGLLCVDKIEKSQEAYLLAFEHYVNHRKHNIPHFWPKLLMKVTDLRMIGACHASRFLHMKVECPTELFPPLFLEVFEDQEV
T1 sequence (P19793 whole entry partner, other chains not shown, the tested form may be a part): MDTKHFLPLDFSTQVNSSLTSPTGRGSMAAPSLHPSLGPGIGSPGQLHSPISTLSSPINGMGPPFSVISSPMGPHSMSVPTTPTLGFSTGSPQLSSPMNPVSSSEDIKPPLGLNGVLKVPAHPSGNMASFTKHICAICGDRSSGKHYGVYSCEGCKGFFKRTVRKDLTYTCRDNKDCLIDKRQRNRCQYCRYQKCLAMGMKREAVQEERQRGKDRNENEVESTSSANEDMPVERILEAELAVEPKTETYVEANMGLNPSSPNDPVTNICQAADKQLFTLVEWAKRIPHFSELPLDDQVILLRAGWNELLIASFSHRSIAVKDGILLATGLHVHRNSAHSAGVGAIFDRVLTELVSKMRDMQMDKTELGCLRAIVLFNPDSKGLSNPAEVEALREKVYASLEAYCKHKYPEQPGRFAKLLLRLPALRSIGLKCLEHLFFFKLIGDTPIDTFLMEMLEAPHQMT
T2 sequence (P10828 217-461 limits assumed, other chains not shown): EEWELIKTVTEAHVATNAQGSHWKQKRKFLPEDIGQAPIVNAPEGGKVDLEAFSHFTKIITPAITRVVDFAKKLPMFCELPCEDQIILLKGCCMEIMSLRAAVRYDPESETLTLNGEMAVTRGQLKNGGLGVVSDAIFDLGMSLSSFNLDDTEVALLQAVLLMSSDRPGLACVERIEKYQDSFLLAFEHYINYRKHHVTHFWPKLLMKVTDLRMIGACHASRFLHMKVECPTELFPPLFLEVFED
T2 sequence (P28702 whole entry partner, other chains not shown, the tested form may be a part): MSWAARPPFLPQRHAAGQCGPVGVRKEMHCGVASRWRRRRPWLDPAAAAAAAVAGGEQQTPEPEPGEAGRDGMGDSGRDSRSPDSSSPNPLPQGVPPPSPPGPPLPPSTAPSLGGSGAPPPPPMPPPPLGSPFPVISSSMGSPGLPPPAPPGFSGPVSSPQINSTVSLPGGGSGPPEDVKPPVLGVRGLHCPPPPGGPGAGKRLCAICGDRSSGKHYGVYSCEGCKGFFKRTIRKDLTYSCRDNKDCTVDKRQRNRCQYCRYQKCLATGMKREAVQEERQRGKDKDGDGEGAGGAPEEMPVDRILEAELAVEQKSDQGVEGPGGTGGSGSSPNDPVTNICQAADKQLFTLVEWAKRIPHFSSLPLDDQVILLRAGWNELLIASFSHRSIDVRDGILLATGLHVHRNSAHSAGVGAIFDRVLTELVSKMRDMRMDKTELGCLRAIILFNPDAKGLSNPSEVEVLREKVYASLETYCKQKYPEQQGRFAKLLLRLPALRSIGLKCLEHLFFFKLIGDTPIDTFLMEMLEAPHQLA

Structure (SMILES)	EC50 [1] [nM]	Emax [1] [%]	EC50 [2] [nM]	Emax [2] [%]	α/β selectivity (multiple) [2] [multiple]
Cc1cc(OCP(=O)(O)O)cc(C)c1Cc1ccc(O)c2ccccc12 [A, ((4-((4-hydroxynaphthyl-1-yl)methyl)-3,5-dimethylphenoxy)methyl) phosphoric acid, reference compound]	280	106	109	100	4.7
Cc1cc(OCP(=O)(O)O)cc(C)c1Cc1ccc(O)c2c1CCCC2 [B, reference compound]	230	106	41	111	11.4
Cc1cc(OCP(=O)(O)O)cc(C)c1Cc1ccc(O)c2c1CCC2C (stereo not drawn) [Compound 2]	< 200	98.3	< 100	104	–
Cc1cc(OCP(=O)(O)O)cc(C)c1Cc1ccc(O)c2c1CCCC2(C)C [Compound 3]	270	105	104	100	4.8
Cc1cc(OCP(=O)(O)O)cc(C)c1Cc1ccc(O)c2c1CCCCC2(C)C [Compound 4, ((4-((4-hydroxy-5,5-dimethyl-6,7,8,9-tetrahydro-5H-benzo[7]annun-1-yl)methyl)-3,5-dimethylphenoxy)methyl) phosphoric acid]	> 10000	–	> 1000	–	–
